Test system: wound
Assay: Patient wound healing study
Assay type: in vivo, human
Settings: topical application directly in the wound
From the text: Thus, for example, a skin ailment could be treated using a disclosed composition as follows: • 1. Clean the skin ailment with soap and warm water, with either a wash cloth or gauze sponge. Cleaning may be lightly abrasive as the subject tolerates. Alternatively, the skin ailment can be cleaned with gauze, moistened with saline and hibiclens. Again, the cleaning may be lightly abrasive as the subject tolerates. • 2. Rinse the ailment thoroughly with warm water or saline so no soap residue remains. • 3. Apply the topical composition to a Q-Tip applicator and lightly cover the surface of the ailment with the composition. […] If eschar is present, apply the composition to the edge of the eschar and beneath the edge of the eschar. The composition need not be applied to the top of the eschar. • 4. Cover the ailment with dry gauze. Wrap and secure the gauze with Kling, Kerlex roll, or Ace wrap. The wrap should be loosely applied so as to secure the dressing but to not apply pressure to the ailment site. • 5. If there is surrounding dermatitis (redness), allow the area to dry (no wrap need be applied).
3. Summary of Patient Wound Healing Study
A summary of the results of a patient wound healing study are illustrated in Table 2 below. The average blood sugar (BS) change by age and class are shown in FIG. 2A and FIG. 2B, respectively. […]

insulin
healing: significantly enhances healing
wound glucose level: decreases the wound glucose level
